Source: patent publication US20230085307A1, “PYRIDAZINONE COMPOUND AND HERBICIDE” (NISSAN CHEMICAL CORPORATION, priority 2019, published 2023)

Experiments:
persian speedwell = experiment: Test Example 4: herbicidal effect by soil treatment (Table 19, symbol R); assay type: in vivo, Persian speedwell (Veronica persica); conditions: amount of applied herbicide 320 g/ha
Summary of the method: (§1)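 Emulsion of test compound, water-diluted to predetermined amount, sprayed on soil after sowing (seed depth ~1.5 cm, sterilized diluvial soil). Greenhouse, 25–30° C. Effect graded at three weeks post-spray.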

Italian ryegrass [1] = experiment: Test Example 4: herbicidal effect by soil treatment (Table 19, symbol K); assay type: in vivo, Italian ryegrass (Lolium multiflorum); conditions: amount of applied herbicide 320 g/ha
Summary of the method: as §1

velvetleaf = experiment: Test Example 5: herbicidal effect by foliage application, plastic box (Table 20, symbol M); assay type: in vivo, velvetleaf (Abutilon theophrasti); conditions: 320 g/ha; for M: velvetleaf, herbicidal effect grade: three weeks after application
Summary of the method: (§2)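 Post-emergence foliar test in sterilized diluvial soil. Compound applied as water-diluted emulsion at a predetermined rate to 14-day-old plants; evaluation at three weeks.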

chickweed = experiment: Test Example 4: herbicidal effect by soil treatment (Table 19, symbol P); assay type: in vivo, common chickweed (Stellaria media); conditions: amount of applied herbicide 320 g/ha
Summary of the method: as §1

Japanese bulrush [2] = experiment: Test Example 1: herbicidal activity, application before weed generation under submerged conditions (Table 16, symbol B); assay type: in vivo, Japanese bulrush (Schoenoplectus juncoides); conditions: amount of applied herbicide 320 g/ha
Summary of the method: (§3)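 Emulsion formulation, water-diluted to set dose, was put onto the flooded surface (4 cm depth, alluvial soil) the same day weeds were sown and 2.5-leaf rice transplanted. After 3 weeks at 25-30 °C under glass, each species was rated 0 (≤5% kill) to 5 (≥90% kill).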

barnyard grass [3] = experiment: Test Example 4: herbicidal effect by soil treatment (Table 19, symbol H); assay type: in vivo, barnyard grass (Echinochloa crus-galli); conditions: amount of applied herbicide 320 g/ha
Summary of the method: as §1

wild oat [4] = experiment: Test Example 5: herbicidal effect by foliage application, plastic box (Table 20, symbol I); assay type: in vivo, wild oat (Avena fatua); conditions: 320 g/ha; for I: wild oat, herbicidal effect grade: three weeks after application
Summary of the method: as §2

wild oat [5] = experiment: Test Example 4: herbicidal effect by soil treatment (Table 19, symbol I); assay type: in vivo, wild oat (Avena fatua); conditions: amount of applied herbicide 320 g/ha
Summary of the method: as §1

late watergrass [6] = experiment: Test Example 2: herbicidal activity, application during weed generation under submerged conditions (Table 17, symbol A); assay type: in vivo, late watergrass (Echinochloa oryzicola); conditions: for herbicidal effect rating, A: late watergrass: AAH 320 g/ha, application during weed generation, submerged conditions
Summary of the method: (§4)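 In this pot test, flooded alluvial soil (water depth 4 cm) holds all three species sown as a mixture. Once seedlings have one to two leaves, the compound's emulsion, thinned with water to the intended dose, is poured on the water; grading follows after three weeks on the earlier criteria.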

redroot pigweed = experiment: Test Example 5: herbicidal effect by foliage application, plastic box (Table 20, symbol N); assay type: in vivo, redroot pigweed (Amaranthus retroflexus); conditions: 320 g/ha; for N: redroot pigweed, herbicidal effect grade: three weeks after application
Summary of the method: as §2

blackgrass [7] = experiment: Test Example 5: herbicidal effect by foliage application, plastic box (Table 20, symbol J); assay type: in vivo, blackgrass (Alopecurus myosuroides); conditions: 320 g/ha; for J: blackgrass, herbicidal effect grade: three weeks after application
Summary of the method: as §2

blackgrass [8] = experiment: Test Example 4: herbicidal effect by soil treatment (Table 19, symbol J); assay type: in vivo, blackgrass (Alopecurus myosuroides); conditions: amount of applied herbicide 320 g/ha
Summary of the method: as §1

barnyard grass [9] = experiment: Test Example 3: herbicidal effect by foliage application, Wagner pot (Table 18, symbol H); assay type: in vivo, barnyard grass (Echinochloa crus-galli); conditions: for herbicidal effect on barnyard grass (H): 320 g/ha
Summary of the method: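 Plants were sown in alluvial soil held under 0.1–0.5 cm standing water and grown 14 days in a greenhouse at 25–30 °C. An emulsifiable formulation, water-diluted to the set dose, was then sprayed onto the foliage, and effects were scored three weeks later using previously defined criteria.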

green foxtail = experiment: Test Example 4: herbicidal effect by soil treatment (Table 19, symbol G); assay type: in vivo, green foxtail (Setaria viridis); conditions: amount of applied herbicide 320 g/ha
Summary of the method: as §1

late watergrass [10] = experiment: Test Example 1: herbicidal activity, application before weed generation under submerged conditions (Table 16, symbol A); assay type: in vivo, late watergrass (Echinochloa oryzicola); conditions: amount of applied herbicide 320 g/ha
Summary of the method: as §3

Italian ryegrass [11] = experiment: Test Example 5: herbicidal effect by foliage application, plastic box (Table 20, symbol K); assay type: in vivo, Italian ryegrass (Lolium multiflorum); conditions: 320 g/ha; for K: Italian ryegrass, herbicidal effect grade: three weeks after application
Summary of the method: as §2

Japanese bulrush [12] = experiment: Test Example 2: herbicidal activity, application during weed generation under submerged conditions (Table 17, symbol B); assay type: in vivo, Japanese bulrush (Schoenoplectus juncoides); conditions: for herbicidal effect rating, B: Japanese bulrush: AAH 320 g/ha, application during weed generation, submerged conditions
Summary of the method: as §4

[13] = amount of applied herbicide 320 g/ha
[14] = foliage application after 14-day growth, evaluated three weeks after application
[15] = foliage application, evaluated 3 weeks after application
[16] = application during weed generation under submerged conditions, amount of applied herbicide 320 g/ha

| Compound | M: velvetleaf, herbicidal effect grade (velvetleaf; foliage application) | Herbicidal effect, B: Japanese bulrush (Japanese bulrush [2]) | I: wild oat, herbicidal effect grade (wild oat [4]; foliage application) | herbicidal effect rating, A: late watergrass (late watergrass [6]) | N: redroot pigweed, herbicidal effect grade (redroot pigweed; foliage application) | J: blackgrass, herbicidal effect grade (blackgrass [7]; foliage application) | Herbicidal effect, A: late watergrass (late watergrass [10]) | K: Italian ryegrass, herbicidal effect grade (Italian ryegrass [11]; foliage application) | herbicidal effect rating, B: Japanese bulrush (Japanese bulrush [12]) | herbicidal effect on barnyard grass (H) (barnyard grass [9]) | R: persian speedwell, herbicidal effect grade (persian speedwell) | K: Italian ryegrass, herbicidal effect grade (Italian ryegrass [1]) | P: chickweed, herbicidal effect grade (chickweed) | H: barnyard grass, herbicidal effect grade (barnyard grass [3]) | I: wild oat, herbicidal effect grade (wild oat [5]) | J: blackgrass, herbicidal effect grade (blackgrass [8]) | G: green foxtail, herbicidal effect grade (green foxtail) | other results |
| --- | --- | --- | --- | --- | --- | --- | --- | --- | --- | --- | --- | --- | --- | --- | --- | --- | --- | --- |
| COc1ccccc1-c1sc2cc(F)ccc2c1-c1c(O)c(C)nn(C)c1=O [3-003] | 5 (Herbicidal rate of 90% or more (almost completely withered)) | 4 (Herbicidal rate of 70% or more and less than 90%) | 5 (Herbicidal rate of 90% or more (almost completely withered)) | 2 (Herbicidal rate of 20% or more and less than 40%) | 5 (Herbicidal rate of 90% or more (almost completely withered)) | 5 (Herbicidal rate of 90% or more (almost completely withered)) | 3 (Herbicidal rate of 40% or more and less than 70%) | 5 (Herbicidal rate of 90% or more (almost completely withered)) | 3 (Herbicidal rate of 40% or more and less than 70%) |  |  |  |  |  |  |  |  | herbicidal effect, R: persian speedwell (persian speedwell): 4 (Herbicidal rate of 70% or more and less than 90%); herbicidal effect, K: Italian ryegrass (Italian ryegrass [1]): 4 (Herbicidal rate of 70% or more and less than 90%); herbicidal effect, P: chickweed (chickweed): 4 (Herbicidal rate of 70% or more and less than 90%); herbicidal effect, H: barnyard grass (barnyard grass [3]): 4 (Herbicidal rate of 70% or more and less than 90%); herbicidal effect, I: wild oat (wild oat [5]): 4 (Herbicidal rate of 70% or more and less than 90%); herbicidal effect, J: blackgrass (blackgrass [8]): 3 (Herbicidal rate of 40% or more and less than 70%); herbicidal effect on H: barnyard grass (barnyard grass [9]; [13]): 5 (Herbicidal rate of 90% or more (almost completely withered)); herbicidal effect, G: green foxtail (green foxtail): 5 (Herbicidal rate of 90% or more (almost completely withered)) |
| COc1ccc2c(-c3c(OC(=O)C4CCCCC4)c(C)nn(C)c3=O)c(-c3ccccc3OC)sc2c1 [3-156] |  | 4 (Herbicidal rate of 70% or more and less than 90%) |  | 3 (Herbicidal rate of 40% or more and less than 70%) |  |  | 5 (Herbicidal rate of 90% or more (almost completely withered)) |  | 4 (Herbicidal rate of 70% or more and less than 90%) | 5 (Herbicidal rate of 90% or more (almost completely withered)) |  |  |  |  |  |  |  | Herbicidal effect by soil treatment, R: persian speedwell (persian speedwell): 4 (Herbicidal rate of 70% or more and less than 90%); Herbicidal effect by soil treatment, K: Italian ryegrass (Italian ryegrass [1]): 0 (Herbicidal rate of 5% or less (almost no effect)); herbicidal effect on M: velvetleaf (evaluation grade 0-5) (velvetleaf; [14]): 5 (Herbicidal rate of 90% or more (almost completely withered)); Herbicidal effect by soil treatment, P: chickweed (chickweed): 3 (Herbicidal rate of 40% or more and less than 70%); Herbicidal effect by soil treatment, H: barnyard grass (barnyard grass [3]): 0 (Herbicidal rate of 5% or less (almost no effect)); herbicidal effect on I: wild oat (evaluation grade 0-5) (wild oat [4]; [14]): 4 (Herbicidal rate of 70% or more and less than 90%); Herbicidal effect by soil treatment, I: wild oat (wild oat [5]): 0 (Herbicidal rate of 5% or less (almost no effect)); herbicidal effect on N: redroot pigweed (evaluation grade 0-5) (redroot pigweed; [14]): 5 (Herbicidal rate of 90% or more (almost completely withered)); herbicidal effect on J: blackgrass (evaluation grade 0-5) (blackgrass [7]; [14]): 4 (Herbicidal rate of 70% or more and less than 90%); Herbicidal effect by soil treatment, J: blackgrass (blackgrass [8]): 0 (Herbicidal rate of 5% or less (almost no effect)); Herbicidal effect by soil treatment, G: green foxtail (green foxtail): 0 (Herbicidal rate of 5% or less (almost no effect)); herbicidal effect on K: Italian ryegrass (evaluation grade 0-5) (Italian ryegrass [11]; [14]): 3 (Herbicidal rate of 40% or more and less than 70%) |
| COc1ccccc1-c1sc2cc(OCc3ccccc3)ccc2c1-c1c(O)c(C)nn(C)c1=O [3-118] | 2 (Herbicidal rate of 20% or more and less than 40%) | 3 (Herbicidal rate of 40% or more and less than 70%) | 3 (Herbicidal rate of 40% or more and less than 70%) | 1 (Herbicidal rate of 5% or more and less than 20%) | 5 (Herbicidal rate of 90% or more (almost completely withered)) | 4 (Herbicidal rate of 70% or more and less than 90%) | 3 (Herbicidal rate of 40% or more and less than 70%) | 5 (Herbicidal rate of 90% or more (almost completely withered)) | 2 (Herbicidal rate of 20% or more and less than 40%) | 4 (Herbicidal rate of 70% or more and less than 90%) | 5 (Herbicidal rate of 90% or more (almost completely withered)) | 3 (Herbicidal rate of 40% or more and less than 70%) | 0 (Herbicidal rate of 5% or less (almost no effect)) | 0 (Herbicidal rate of 5% or less (almost no effect)) | 0 (Herbicidal rate of 5% or less (almost no effect)) | 0 (Herbicidal rate of 5% or less (almost no effect)) | 0 (Herbicidal rate of 5% or less (almost no effect)) |  |
| Cc1ccc2oc(-c3ccc(OCC(C)C)cc3)c(-c3c(O)c(C)nn(C)c3=O)c2c1 [9-051] |  | 5 (Herbicidal rate of 90% or more (almost completely withered)) |  |  |  |  | 5 (Herbicidal rate of 90% or more (almost completely withered)) |  |  |  | 5 (Herbicidal rate of 90% or more (almost completely withered)) | 5 (Herbicidal rate of 90% or more (almost completely withered)) | 5 (Herbicidal rate of 90% or more (almost completely withered)) | 4 (Herbicidal rate of 70% or more and less than 90%) | 0 (Herbicidal rate of 5% or less (almost no effect)) | 5 (Herbicidal rate of 90% or more (almost completely withered)) | 5 (Herbicidal rate of 90% or more (almost completely withered)) | M (velvetleaf) herbicidal effect grade (velvetleaf; [15]): 5 (Herbicidal rate of 90% or more (almost completely withered)); I (wild oat) herbicidal effect grade (wild oat [4]; [15]): 1 (Herbicidal rate of 5% or more and less than 20%); herbicidal effect grade, A: late watergrass (late watergrass [6]; [16]): 5 (Herbicidal rate of 90% or more (almost completely withered)); N (redroot pigweed) herbicidal effect grade (redroot pigweed; [15]): 5 (Herbicidal rate of 90% or more (almost completely withered)); J (blackgrass) herbicidal effect grade (blackgrass [7]; [15]): 5 (Herbicidal rate of 90% or more (almost completely withered)); Herbicidal effect on H (barnyard grass), foliage application (barnyard grass [9]; [13]): 5 (Herbicidal rate of 90% or more (almost completely withered)); K (Italian ryegrass) herbicidal effect grade (Italian ryegrass [11]; [15]): 5 (Herbicidal rate of 90% or more (almost completely withered)); herbicidal effect grade, B: Japanese bulrush (Japanese bulrush [12]; [16]): 4 (Herbicidal rate of 70% or more and less than 90%) |
